In ChEMBL document CHEMBL3286321, “Facile Synthesis and Preliminary Structure-Activity Analysis of New Sulfonamides Against Trypanosoma brucei” (ACS Med Chem Lett, 2014) one finds IC50, selectivity ratio and inhibition data, which are given here for 26 compounds.

What is called IC50 is the concentration at which inhibition is half-maximal. A word on the inhibition: it is the drop in the measured response relative to a control, in per cent.

Data set [1] has as its system Trypanosoma brucei brucei. Description: Trypanocidal activity against logarithmic phase of Trypanosoma brucei brucei 427 assessed as inhibition of parasite viability after 48 hrs by Alamar blue viability assay. In kind it is functional, organism-based. To be noted: Trypanosoma brucei, 427, 48 h. In general terms: The colour change of resazurin is a common sign of viable cells or microbes.

The nature of data set [2]: Selectivity index, ratio of IC50 for HEK293 cells to IC50 for Trypanosoma brucei brucei 427. Conditions: human, read-out: Ratio IC50. Type of data set: toxicity, cell-based.
In data set [3] the test system is Trypanosoma brucei brucei. Briefly: Trypanocidal activity against logarithmic phase of Trypanosoma brucei brucei 427 assessed as inhibition of parasite viability at 10 uM after 48 hrs by Alamar blue viability assay. Type of data set: functional. To be noted: Trypanosoma brucei, 427, 48 h.

SMILES strings stand for the structures.

For the compound `CCCS(=O)(=O)N1CCCc2ccc(NS(=O)(=O)c3ccc(C(C)C)cc3)cc21`, the IC50 in data set [1] stood at 1.71 µM. Further, the selectivity ratio in data set [2] stood at 8.9.
As for `CCS(=O)(=O)N1CCCc2ccc(NS(=O)(=O)c3ccc(Br)s3)cc21`, the IC50 in data set [1] came to 11.2 µM. Further, the selectivity ratio in data set [2] amounted to 7.7.
On the same counts, the results for `Cc1ccc(S(=O)(=O)Nc2ccc3c(c2)N(S(=O)(=O)c2cccs2)CCC3)cc1` are 3.1 µM and 2.5.
For the compound `CCS(=O)(=O)N1CCCc2ccc(NS(=O)(=O)c3c(F)cccc3F)cc21`, in data set [3], the inhibition at 10 µM was 82%.
Regarding `CCCS(=O)(=O)N1CCCc2ccc(NS(=O)(=O)c3cc(C)cc(C)c3)cc21`, the inhibition at 10 µM in data set [3] was less than 10%.
Consider `CCCS(=O)(=O)N1CCCc2ccc(NS(=O)(=O)c3c(C)c(C)c(C)c(C)c3C)cc21`, for which the IC50 in data set [1] was 7.9 µM. Besides, the selectivity ratio in data set [2] is 11.4.
As to `CCCS(=O)(=O)N1CCCc2ccc(NS(=O)(=O)c3ccc(C)cc3)cc21`, in data set [1], the IC50 is 1.84 µM. The selectivity ratio in data set [2] was 29.
On the same counts, the results for `CCS(=O)(=O)N1CCCc2ccc(NS(=O)(=O)c3cccs3)cc21` are 4 µM and 20.8.
For the compound `CCCS(=O)(=O)N1CCCc2ccc(NS(=O)(=O)c3cccs3)cc21`, the inhibition at 10 µM in data set [3] is less than 10%.
Same read-out and setting: to `CCCS(=O)(=O)N1CCCc2ccc(NS(=O)(=O)c3cccc(C)c3)cc21` belongs less than 10%; to `O=S(=O)(Nc1ccc2c(c1)N(S(=O)(=O)c1cccs1)CCC2)c1cccs1`, 35%.
In the case of `CCS(=O)(=O)N1CCCc2ccc(NS(=O)(=O)c3cccc(F)c3)cc21`, the IC50 in data set [1] is 7.8 µM. For the same compound, the selectivity ratio in data set [2] was determined as 11.2.
For `Cc1ccc(S(=O)(=O)Nc2ccc3c(c2)N(S(=O)(=O)c2ccc(C)cc2)CCC3)cc1` the same measures were 3.9 µM and 1.8.
As to `CCCS(=O)(=O)N1CCCc2ccc(NS(=O)(=O)c3ccccc3C)cc21`, the inhibition at 10 µM in data set [3] was 11%.
As to `CCS(=O)(=O)N1CCCc2ccc(NS(=O)(=O)c3ccccc3F)cc21`, in data set [2], the selectivity ratio was 32.
`CCS(=O)(=O)Nc1ccc2c(c1)N(S(=O)(=O)CC)CCC2`: the inhibition at 10 µM in data set [3] stood at 14%.
The same measure, in the same setting: the same measure for `CCS(=O)(=O)N1CCCc2ccc(NS(=O)(=O)CC(F)(F)F)cc21`: 18%.
Consider `CCCS(=O)(=O)N1CCCc2ccc(NS(=O)(=O)c3ccc(C)cc3C)cc21`, for which, in data set [1], the IC50 stood at 9 µM. In data set [2], the selectivity ratio was found to be 10.4.
On the same counts, the results for `CCS(=O)(=O)N1CCCc2ccc(NS(=O)(=O)c3ccc(C)cc3)cc21` are 3.4 µM and 25.8.
On the same counts, the results for `CCCS(=O)(=O)N1CCCc2ccc(NS(=O)(=O)c3ccccc3F)cc21` are 3.5 µM and 24.3.
On the same counts, the results for `CCCS(=O)(=O)N1CCCc2ccc(NS(=O)(=O)c3ccc(-c4ccccc4)cc3)cc21` are 5.7 µM and 16.6.
With `Cc1ccc(S(=O)(=O)N2CCCc3ccc(NS(=O)(=O)c4cccs4)cc32)cc1`, the IC50 in data set [1] is 7.9 µM. Besides, the selectivity ratio in data set [2] is 1.7.
For `CCS(=O)(=O)N1CCCc2ccc(NS(=O)(=O)c3ccc(F)cc3)cc21` the same measures were 7.8 µM and 11.8.
For `CCS(=O)(=O)N1CCCc2ccc(NS(=O)(=O)c3ccc(Br)cc3F)cc21` the same measures were 9.9 µM and 9.
As to `CCS(=O)(=O)N1CCCc2ccc(NS(=O)(=O)c3c(F)c(F)c(F)c(F)c3F)cc21`, the inhibition at 10 µM in data set [3] amounted to 94%.
`CCS(=O)(=O)N1CCCc2ccc(NS(=O)(=O)c3ccc(Cl)s3)cc21`: the 50% inhibitory concentration (IC50) in data set [1] was 13.1 µM. Also, the selectivity ratio in data set [2] is 6.9.
